The results in this text go back to ChEMBL document CHEMBL6134931, “Lysine-Targeted Covalent Strategy Leading to the Discovery of Novel Potent PROTAC-Based PI3Kδ Degraders” (J Med Chem, 2025).

The subject of experiment [1] is SU-DHL-6. The experiment can be described thus: Antiproliferative activity against human SU-DHL-6 cells assessed as cell growth inhibition incubated for 72 hrs by MTT assay. It counts as functional.
Experiment [2] has as its system SU-DHL-6. Put plainly: Inhibition of AKT phosphorylation in human SU-DHL-6 cells at 0.1 to 1 uM incubated for 24 hrs by Western blot analysis. It counts as cell-based. The following applies: dose 0.1-1 µM.
The next experiment concerns Pfeiffer. Put plainly: Antiproliferative activity against human Pfeiffer cells assessed as cell growth inhibition incubated for 72 hrs by MTT assay. It counts as functional.
The subject of experiment [3] is SU-DHL-6. The experiment can be described thus: Inhibition of AKT phosphorylation in human SU-DHL-6 cells at 1 to 10000 nM incubated for 24 hrs by Western blot analysis. The conditions noted are these: dose 1-10000 nM. It counts as cell-based.
Experiment [4] concerns SU-DHL-6. Put plainly: Induction of autophagy in human SU-DHL-6 cells assessed as increase in LC3-II to LC3-I ratio at 1 to 100 nM incubated for 24 hrs by Western blot analysis. It is filed as functional, cell-based. The conditions noted are these: dose 1-100 nM.
For experiment [5], the system named is SU-DHL-6. The experiment can be described thus: Inhibition of AKT phosphorylation in human SU-DHL-6 cells at higher concentration incubated for 24 hrs by Western blot analysis. It is filed as cell-based.

Calls of active or inactive are those of the source. The rule behind the calls is not given here.

For the compound `COc1ncc(-c2ccc3ncnc(N[C@H]4CCN(C(=O)C5CCN(C(=O)CCCCCCCCCN[C@H](C(=O)N6C[C@H](O)C[C@H]6C(=O)NCc6ccc(-c7scnc7C)cc6)C(C)(C)C)CC5)C4)c3n2)cc1C(=O)Oc1ccccc1`, the figures for the GI50 with SU-DHL-6 [1] and with Pfeiffer were 300 nM and greater than 10000 nM, respectively. Besides, the inhibition entry in the experiment with SU-DHL-6 [2] was “Active”.
Consider `COc1ncc(-c2ccc3ncnc(N[C@H]4CCN(C(=O)C5CCN(CCCCCCCCCCC(=O)N[C@H](C(=O)N6C[C@H](O)C[C@H]6C(=O)NCc6ccc(-c7scnc7C)cc6)C(C)(C)C)CC5)C4)c3n2)cc1C(=O)Oc1ccccc1`, for which the figures for the GI50 with SU-DHL-6 [1] and in the experiment with Pfeiffer were 180 nM and 340 nM, respectively. Moreover, the inhibition result in the experiment on SU-DHL-6 [2] and with SU-DHL-6 [3] was “Active” each time. In addition, in the experiment with SU-DHL-6 [4], the result was Active.
Turning to `COc1ncc(-c2ccc3ncnc(N[C@H]4CCN(CCCCCCCC(=O)N[C@H](C(=O)N5C[C@H](O)C[C@H]5C(=O)NCc5ccc(-c6scnc6C)cc5)C(C)(C)C)C4)c3n2)cc1C(=O)Oc1ccccc1`, the GI50 was found to be 900 nM in the experiment on SU-DHL-6 [1] and 1280 nM in the experiment on Pfeiffer. Besides, in the experiment on SU-DHL-6 [2], the inhibition entry was “Active”.
The corresponding values for `COc1ncc(-c2ccc3ncnc(N[C@H]4CCN(C(=O)C5CCN(CCCCCCCCCCCC(=O)N[C@H](C(=O)N6C[C@H](O)C[C@H]6C(=O)NCc6ccc(-c7scnc7C)cc6)C(C)(C)C)CC5)C4)c3n2)cc1C(=O)Oc1ccccc1` are 400 nM, 1940 nM and “Active”.
For the compound `COc1ncc(-c2ccc3ncnc(N[C@H]4CCN(C(=O)CCCCCCC(=O)N[C@H](C(=O)N5C[C@H](O)C[C@H]5C(=O)NCc5ccc(-c6scnc6C)cc5)C(C)(C)C)C4)c3c2)cc1C#N`, the GI50 with SU-DHL-6 [1] was greater than 10000 nM. The inhibition entry with SU-DHL-6 [2] is “inactive”.
In the case of `COc1ncc(-c2ccc3ncnc(N[C@H]4CCN(C(=O)C5CCN(CCCCCCCCCC(=O)Nc6cccc7c6CN(C6CCC(=O)NC6=O)C7=O)CC5)C4)c3n2)cc1C(=O)Oc1ccccc1` (stereo partly drawn), the GI50 with SU-DHL-6 [1] is 490 nM; in the experiment on Pfeiffer, greater than 10000 nM. The inhibition result in the experiment with SU-DHL-6 [2] was “Active”.
As for `COc1ncc(-c2ccc3ncnc(N[C@H]4CCN(CCCCCCCCCC(=O)N[C@H](C(=O)N5C[C@H](O)C[C@H]5C(=O)NCc5ccc(-c6scnc6C)cc5)C(C)(C)C)C4)c3n2)cc1C(=O)Oc1ccccc1`, the figures for the GI50 in the experiment with SU-DHL-6 [1] and in the experiment on Pfeiffer were 2480 nM and 1370 nM, respectively. The inhibition result with SU-DHL-6 [2] was “Active”.
For `COc1ncc(-c2ccc3ncnc(N[C@H]4CCN(C(=O)C5CCN(CCCCCCC(=O)N[C@H](C(=O)N6C[C@H](O)C[C@H]6C(=O)NCc6ccc(-c7scnc7C)cc6)C(C)(C)C)CC5)C4)c3n2)cc1C(=O)Oc1ccccc1`, the GI50 in the experiment on SU-DHL-6 [1] is 2630 nM; in the experiment with Pfeiffer, 2960 nM. In addition, the inhibition entry in the experiment on SU-DHL-6 [2] was “Active”.
On to `COc1ncc(-c2ccc3ncnc(N[C@H]4CCN(C(=O)C5CCN(CCCCCC(=O)N[C@H](C(=O)N6C[C@H](O)C[C@H]6C(=O)NCc6ccc(-c7scnc7C)cc6)C(C)(C)C)CC5)C4)c3n2)cc1C(=O)Oc1ccccc1`, for which the GI50 in the experiment on SU-DHL-6 [1] is 2470 nM; in the experiment on Pfeiffer, greater than 10000 nM. Also, the inhibition result with SU-DHL-6 [2] was “Active”.
The corresponding values for `COc1ncc(-c2ccc3ncnc(N[C@H]4CCN(CCCCCCC(=O)N[C@H](C(=O)N5C[C@H](O)C[C@H]5C(=O)NCc5ccc(-c6scnc6C)cc5)C(C)(C)C)C4)c3n2)cc1C(=O)Oc1ccccc1` are 1230 nM, 1410 nM and “Active”.
In the case of `COc1ncc(-c2ccc3ncnc(N[C@H]4CCN(C(=O)CCC(=O)NCCOCCOCC(=O)Nc5cccc6c5CN(C5CCC(=O)NC5=O)C6=O)C4)c3c2)cc1C#N` (stereo partly drawn), the GI50 in the experiment on SU-DHL-6 [1] was greater than 10000 nM. Besides, the inhibition entry in the experiment with SU-DHL-6 [2] is “inactive”.
The corresponding values for `COc1ncc(-c2ccc3ncnc(N[C@H]4CCN(C(=O)CCCCCC(=O)Nc5cccc6c5CN(C5CCC(=O)NC5=O)C6=O)C4)c3c2)cc1C#N` (stereo partly drawn) are greater than 10000 nM and “inactive”.
Turning to `COc1ncc(-c2ccc3ncnc(N[C@H]4CCN(C(=O)C5CCN(CCCCCCCCC(=O)N[C@H](C(=O)N6C[C@H](O)C[C@H]6C(=O)NCc6ccc(-c7scnc7C)cc6)C(C)(C)C)CC5)C4)c3n2)cc1C(=O)Oc1ccccc1`, the GI50 in the experiment with SU-DHL-6 [1] is 730 nM; in the experiment on Pfeiffer, 600 nM. In addition, the inhibition entry in the experiment on SU-DHL-6 [2] was “Active”.
Turning to `COc1ncc(-c2ccc3ncnc(N[C@H]4CCN(C(=O)CCC(=O)NCCC(=O)Nc5cccc6c5CN(C5CCC(=O)NC5=O)C6=O)C4)c3c2)cc1C#N` (stereo partly drawn), in the experiment with SU-DHL-6 [1], the GI50 was greater than 10000 nM. For the same compound, in the experiment on SU-DHL-6 [2], the inhibition entry is “inactive”.
As for `COc1ncc(-c2ccc3ncnc(N[C@H]4CCN(CCCCCCCCC(=O)N[C@H](C(=O)N5C[C@H](O)C[C@H]5C(=O)NCc5ccc(-c6scnc6C)cc5)C(C)(C)C)C4)c3n2)cc1C(=O)Oc1ccccc1`, the values for the GI50 in the experiment with SU-DHL-6 [1] and in the experiment on Pfeiffer were 1370 nM and 1250 nM, respectively. For the same compound, the inhibition result with SU-DHL-6 [2] was “Active”.
In the case of `COc1ncc(-c2ccc3ncnc(N[C@H]4CCN(C(=O)CCC(=O)NCC(=O)Nc5cccc6c5CN(C5CCC(=O)NC5=O)C6=O)C4)c3c2)cc1C#N` (stereo partly drawn), in the experiment on SU-DHL-6 [1], the GI50 was greater than 10000 nM. Besides, in the experiment with SU-DHL-6 [2], the inhibition result is “inactive”.
As for `COc1ncc(-c2ccc3ncnc(N[C@H]4CCN(C(=O)C5CCN(CCCCCCCCCC(=O)N[C@H](C(=O)N6C[C@@H](O)C[C@H]6C(=O)N[C@@H](C)c6ccc(-c7scnc7C)cc6)C(C)(C)C)CC5)C4)c3n2)cc1C(=O)Oc1ccccc1`, the GI50 with SU-DHL-6 [1] turned out to be 870 nM. The inhibition entry in the experiment with SU-DHL-6 [5] is “Active”.
For the compound `COc1ncc(-c2ccc3ncnc(N[C@H]4CCN(C(=O)CCC(=O)NCCCC(=O)Nc5cccc6c5CN(C5CCC(=O)NC5=O)C6=O)C4)c3c2)cc1C#N` (stereo partly drawn), the GI50 in the experiment with SU-DHL-6 [1] was greater than 10000 nM. Further, the inhibition result with SU-DHL-6 [2] was “inactive”.
The corresponding values for `COc1ncc(-c2ccc3ncnc(N[C@H]4CCN(C(=O)CCCCC(=O)Nc5cccc6c5CN(C5CCC(=O)NC5=O)C6=O)C4)c3c2)cc1C#N` (stereo partly drawn) are greater than 10000 nM and “inactive”.
For `COc1ncc(-c2ccc3ncnc(N[C@H]4CCN(C(=O)C5CCN(CCCCCCCCCC(=O)N[C@H](C(=O)N6C[C@H](O)C[C@H]6C(=O)N[C@@H](C)c6ccc(-c7scnc7C)cc6)C(C)(C)C)CC5)C4)c3n2)cc1C(=O)Nc1ccccc1`, the GI50 in the experiment on SU-DHL-6 [1] stood at 900 nM. The inhibition result in the experiment on SU-DHL-6 [5] was “Active”.
Turning to `COc1ncc(-c2ccc3ncnc(N[C@H]4CCN(C(=O)C5CCN(CCCCCCCCCCCCC(=O)N[C@H](C(=O)N6C[C@H](O)C[C@H]6C(=O)NCc6ccc(-c7scnc7C)cc6)C(C)(C)C)CC5)C4)c3n2)cc1C(=O)Oc1ccccc1`, the GI50 in the experiment with SU-DHL-6 [1] worked out at 480 nM; in the experiment on Pfeiffer it was 1060 nM. The inhibition result with SU-DHL-6 [2] is “Active”.
Turning to `COc1ncc(-c2ccc3ncnc(N[C@H]4CCN(C(=O)CCCCCCC(=O)Nc5cccc6c5CN(C5CCC(=O)NC5=O)C6=O)C4)c3c2)cc1C#N` (stereo partly drawn), the GI50 with SU-DHL-6 [1] was greater than 10000 nM. In the experiment on SU-DHL-6 [2], the inhibition result is “inactive”.
In the case of `COc1ncc(-c2ccc3ncnc(N[C@H]4CCN(C(=O)CCC(=O)NCCCCCC(=O)Nc5cccc6c5CN(C5CCC(=O)NC5=O)C6=O)C4)c3c2)cc1C#N` (stereo partly drawn), in the experiment with SU-DHL-6 [1], the GI50 was greater than 10000 nM. Further, the inhibition result in the experiment on SU-DHL-6 [2] was “inactive”.
As to `COc1ncc(-c2ccc3ncnc(N[C@H]4CCN(C(=O)C5CCN(CCCCCCCC(=O)N[C@H](C(=O)N6C[C@H](O)C[C@H]6C(=O)NCc6ccc(-c7scnc7C)cc6)C(C)(C)C)CC5)C4)c3n2)cc1C(=O)Oc1ccccc1`, the values for the 50% growth inhibitory concentration (GI50) with SU-DHL-6 [1] and in the experiment with Pfeiffer were 760 nM and 770 nM, respectively. Moreover, in the experiment with SU-DHL-6 [2], the inhibition result was “Active”.
